US20240335508A1, “HYBRID GOLD NANOPARTICLE-LIPID NANOPARTICLES AND METHODS OF USE AND PRODUCTION THEREOF” (THE BOARD OF REGENTS OF THE UNIVERSITY OF OKLAHOMA, priority 2023, published 2024)

Tested on: TOV-112D cells
Assay: DOX AuNSV cytotoxicity, MTS assay
Type: cell-based
Conditions: 0.5 and 0.25 μg/mL DOX
Protocol: TOV-112D cells were cultured in RPMI 1640 media containing 10% FBS and 1% penicillin-streptomycin at 37° C. with 5% CO2. Cells were seeded on 96-well plates in 100 μL of media at 7,500 cells per well. The next day, cells were treated in triplicate with NSVs, AuNSVs, DOX, DOX NSVs, and DOX AuNSVs at concentrations of 0.5, 0.25, 0.1, and 0.05 μg/mL DOX equivalence. After 24, 48, and 72 hours of treatment, 10 μL of CellTiter 96® AQueous One Solution Cell Proliferation Assay (MTS) (Promega, Madison, WI) was added to each well and incubated for 3-4 hours. After incubation, the well absorbance was measured at 490 nm with a SPECTROstar plate reader with cell viability calculated from the ratio of absorbance between untreated controls and each treatment group.

COc1cccc2c1C(=O)c1c(O)c3c(c(O)c1C2=O)C[C@@](O)(C(=O)CO)C[C@@H]3O[C@H]1C[C@H](N)[C@H](O)[C@H](C)O1 [DOX, Doxorubicin]
Cell viability: decreased cell viability faster than either the DOX NSV or DOX AuNSV
